According to patent US11351178B2, “Selective HDAC6 inhibitors” (ITALFARMACO S.P.A., priority 2017, dated 2022):
Read-outs that look alike come from different tables or passages of the source.

Columns and labels:
[1] = Stability to Phase I metabolism in rat S9 liver fraction; format: in vitro ADME; conditions: after 90 min, 37° C.
Outline: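 Compounds were incubated with rat or human liver S9 fraction at 37 °C for up to 90 min. Reactions were quenched on ice with acidified acetonitrile and analysed by HPLC-UV or LC-MS/MS. Percent remaining versus time zero and intrinsic clearance were calculated.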

[2] = molecular target: T1, recombinant human HDAC6 (Homo sapiens, UniProt Q9UBN7); assay: Enzymatic screening on recombinant human HDAC6; format: biochemical; conditions: read-out: HDAC6 IC50
T1 sequence (Q9UBN7 1-1215): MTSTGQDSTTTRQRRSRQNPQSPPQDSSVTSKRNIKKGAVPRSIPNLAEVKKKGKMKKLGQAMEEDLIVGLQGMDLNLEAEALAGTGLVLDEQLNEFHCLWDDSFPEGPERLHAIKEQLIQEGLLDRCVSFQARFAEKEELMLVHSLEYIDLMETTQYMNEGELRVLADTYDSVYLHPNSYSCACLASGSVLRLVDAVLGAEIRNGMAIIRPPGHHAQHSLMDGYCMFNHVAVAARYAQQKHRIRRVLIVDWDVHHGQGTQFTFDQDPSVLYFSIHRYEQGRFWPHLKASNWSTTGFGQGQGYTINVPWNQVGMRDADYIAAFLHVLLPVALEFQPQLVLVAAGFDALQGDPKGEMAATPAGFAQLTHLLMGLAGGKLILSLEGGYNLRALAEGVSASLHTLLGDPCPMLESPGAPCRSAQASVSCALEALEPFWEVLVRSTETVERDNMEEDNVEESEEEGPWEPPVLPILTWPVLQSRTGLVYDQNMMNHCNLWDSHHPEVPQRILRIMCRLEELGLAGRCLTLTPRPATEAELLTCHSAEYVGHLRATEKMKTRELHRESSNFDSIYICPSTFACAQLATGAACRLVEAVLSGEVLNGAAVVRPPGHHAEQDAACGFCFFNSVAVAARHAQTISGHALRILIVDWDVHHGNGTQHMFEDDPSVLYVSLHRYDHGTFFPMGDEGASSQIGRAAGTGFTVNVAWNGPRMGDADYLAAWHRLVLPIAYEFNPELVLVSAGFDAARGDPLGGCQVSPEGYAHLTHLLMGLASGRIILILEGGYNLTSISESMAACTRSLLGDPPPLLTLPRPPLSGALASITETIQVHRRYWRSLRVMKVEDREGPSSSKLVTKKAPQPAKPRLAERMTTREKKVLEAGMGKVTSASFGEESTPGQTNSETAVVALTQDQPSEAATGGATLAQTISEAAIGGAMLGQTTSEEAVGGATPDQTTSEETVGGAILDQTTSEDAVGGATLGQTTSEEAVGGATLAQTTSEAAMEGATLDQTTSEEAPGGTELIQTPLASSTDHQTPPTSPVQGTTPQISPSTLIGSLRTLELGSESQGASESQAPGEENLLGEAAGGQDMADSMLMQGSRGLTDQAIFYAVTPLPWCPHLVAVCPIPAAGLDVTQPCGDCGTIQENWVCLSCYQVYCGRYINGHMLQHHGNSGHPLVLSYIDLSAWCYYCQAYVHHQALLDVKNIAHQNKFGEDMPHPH
Outline: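 Buffer for substrate addition: 25 mM Tris-HCl pH 8, 130 mM NaCl, 0.05% Tween-20, 10% glycerol, substrate 2× concentrated (FdL, FdL-Green or trifluoroacetyl-lysine). Recombinant human HDAC was preincubated with compound at 30 °C beforehand, timing isoform-dependent, and the reaction was likewise run at 30 °C.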

[3] = Stability in rat plasma; format: in vitro ADME; conditions: after 4 hours, 37° C.
Outline: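 Compounds incubated at 37° C in rat or human plasma at 50 μM (UV/HPLC) or 1 or 2 μM (LC-MS/MS) for 0–4 h. Reaction stopped with acidified acetonitrile on ice; percent remaining versus initial amount and plasma half-life calculated.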

Row | Compound | residual percentage in rat S9 fraction [1] [%] | IC50 ([2]; Table 2) [nM] | IC50 ([2]; Table 3) [nM] | residual percentage in rat plasma [3] [%]
1 | Cc1cc(-c2nnc(Sc3ccc(C(=O)NO)cc3)n2C)nn1C [comp. 85, 4-[[5-(1,5-dimethylpyrazol-3-yl)-4-methyl-1,2,4-triazol-3-yl]sulfanyl]benzenecarbohydroxamic acid] | 75 | 5 | 5 | 76
2 | Cn1c(Sc2c(F)cc(C(=O)NO)cc2F)nnc1C(c1ccccc1)c1ccccc1 [comp. 98, 4-[(5-benzhydryl-4-methyl-1,2,4-triazol-3-yl)sulfanyl]-3,5-difluoro-benzenecarbohydroxamic acid] | 88 | 61 | 61 | 89
3 | O=C(NO)c1cc(F)c(Cn2nnnc2-c2ncccn2)c(F)c1 [comp. 125, 3,5-difluoro-4-[(5-pyrimidin-2-yltetrazol-1-yl)methyl]benzenecarbohydroxamic acid] | 90 | 17 |  | 78
4 | Cn1c(Sc2c(F)cc(C(=O)NO)cc2F)nnc1-c1cccc(CN2CCCCCC2)c1 [comp. 167, 4-[[5-[3-(azepan-1-ylmethyl)phenyl]-4-methyl-1,2,4-triazol-3-yl]sulfanyl]-3,5-difluoro-benzenecarbohydroxamic acid] | 55 | 6 |  | 85
5 | Nc1ccc(-c2nnn(Cc3c(F)cc(C(=O)NO)cc3F)n2)cc1 [comp. 171, 4-[[5-(4-aminophenyl)tetrazol-2-yl]methyl]-3,5-difluoro-benzenecarbohydroxamic acid] | 48 | 4 |  | 77
6 | Cn1c(Sc2c(F)cc(C(=O)NO)cc2F)nnc1-c1cccnn1 [comp. 179, 3,5-difluoro-4-[(4-methyl-5-pyridazin-3-yl-1,2,4-triazol-3-yl)sulfanyl]benzenecarbohydroxamic acid] | 58 | 11 |  | 98
7 | Cn1c(Sc2c(F)cc(C(=O)NO)cc2F)nnc1-c1ncccc1F [comp. 180, 3,5-difluoro-4-[[5-(3-fluoro-2-pyridyl)-4-methyl-1,2,4-triazol-3-yl]sulfanyl]benzenecarbohydroxamic acid] | 70 | 6 |  | 100
8 | O=C(NO)c1cc(F)c(Cc2nnc(-c3ccncc3)s2)c(F)c1 [compound 195, 3,5-difluoro-4-[[5-(4-pyridyl)-1,3,4-thiadiazol-2-yl]methyl]benzenecarbohydroxamic acid] | 32 | 4 |  | 84
